In paper PMC10802969, “Host-defense piscidin peptides as antibiotic adjuvants against Clostridioides difficile” (PLOS ONE, 2024):
“And” between values parts separate entries of the source, which are not always exact repeats. Equal entries are not always repeated. Where two headings read alike, the source gives them in different places.

Columns and labels:
C. difficile R20291 [1] = settings: previously observed / recorded values, ref 76 (vancomycin, fidaxomicin), ref 10 (metronidazole), cited from earlier work
C. difficile R20291 [2] = test: Growth inhibition assay (16 h overnight growth, culture density at 630 nm); format: cell-based, Clostridioides difficile; settings: for Concentration of antibiotic necessary to suppress 16-hour growth of C. difficile: >=90% inhibition of overnight growth vs untreated, R20291, anaerobic 37°C, n>=3
Procedure: Two-fold serial dilutions of BHIS media containing the indicated concentrations of antibiotics were prepared in sterile 96 well plates (ThermoFisher Scientific). […] Inoculated plates were incubated anaerobically at 37°C for 16 h and then removed from the chamber. […] All experiments were performed with a minimum of three samples, and the means and standard deviations were reported. To analyze the effects of the antibiotics, samples containing peptides and antibiotics were compared to samples containing only peptides by two-way analysis of variance using GraphPad Prism 6.

[3] = test system: C. difficile R20291 vegetative cells; test: Enumeration of colony forming units after overnight exposure; format: cell-based, Clostridioides difficile; settings: sub-lethal piscidins (2 μM p1/p1-Cu2+ or 4 μM p3/p3-Cu2+) with sub-lethal antibiotic, 16 h exposure
Procedure: 200 μL samples of BHIS broth containing the indicated concentrations of antibiotics and/or piscidins were inoculated using a 1:10 ratio, in 96 well plates, with exponentially growing C. difficile R20291 cells and incubated for 16 h at 37°C. Samples were spread as duplicates on BHIS agar plates containing 20 μg/mL erythromycin. These plates were incubated anaerobically at 37°C for 48 h before the viable colonies were counted.

C. difficile cells [4] = test: Transmission electron microscopy of cell envelope damage and lysis; format: cell-based, Clostridioides difficile; settings: 5 min treatment, TEM
Procedure: Overnight cultures were prepared by inoculating individual colonies into 3 mL BHIS broth and grown for 14–16 h at 37°C in the anaerobic chamber. The overnight cultures were diluted 1:20 into 4 mL BHIS broth and the cultures were grown until they reached exponential phase (OD600 0.4–0.6). […] After treatment, the samples were transferred to 2 mL Eppendorf tubes and centrifuged for 2 minutes to collect the pellets. The pellets were individually suspended in 1 mL of 1X phosphate-buffered saline solution with 4% paraformaldehyde, prepared as described in [75]. The samples were fixed in the anaerobic chamber for 45 min. After fixation, the eppendorf tubes were removed from the chamber and the exteriors were sterilized with SporGon (Thomas Scientific), 10% bleach, and 70% ethanol (VWR). Samples were incubated on 200 mesh formvar-coated copper grids (Electron Microscopy Sciences, Hatfield, PA) that were glow-discharged. Grids were washed with water, incubated with 2% uranyl acetate, washed with water, dried overnight at room temperature, and imaged using a JEM-2100F TEM (JEOL, Akishima, Japan) at a voltage of 200 kV and using a Gatan OneView camera. The percentage of lysed cells in each condition and the standard error of each condition were compared using the Wilson confidence interval.

C. difficile = settings: in vitro, anaerobic; cited from earlier work
Text: These antibiotics target different cellular components, providing us with a way to identify whether increased efficacy relies on specific mechanistic aspects of the antibiotics and peptides. We tested this by inoculating C. difficile R20291 into media co ...

C. difficile cells [5] = test: Propidium iodide uptake assay (live cell microscopy); format: cell-based, Clostridioides difficile; settings: 20 μg/mL PI; 4 μM p1/p1Cu, 8 μM p3/p3Cu; apo 30 min, metalated 10 min; anaerobic 37°C; qualitative microscopy
Procedure: Samples containing apo-peptides and metalated peptides were incubated for 30 min and 10 min, respectively. After incubation, cells were centrifuged at 704 rfc for 5 minutes and resuspended in 1.5 mL fresh BHIS broth. Negative controls were incubated with PI for 10 or 30 minutes but contained no piscidin. Positive controls were removed from the anaerobic chamber and incubated aerobically for 1 h at room temperature with propidium iodine and 50% ethanol. Within the anaerobic chamber, samples were injected into rose chambers for microscopic imaging as detailed in [53]. The rose chambers were removed from the anaerobic chamber and the outsides were sterilized with 70% ethanol and 10% bleach. […] Samples were imaged with time-lapse differential interference contrast (DIC) microscopy and propidium iodide was monitored at excitation/emission wavelengths of 535/617 nm.

[6] = test system: C. difficile R20291 spores; test: Spore viability assay; format: cell-based, Clostridioides difficile; settings: 16 h, 37°C; for Viable colonies from spores after peptide exposure (spore data): spores in PBS, plated with 0.1% taurocholic acid, individual samples, S6 File; for Viability of dormant C. difficile spores: peptide at or above the concentrations necessary to kill vegetative cells (4/8 μM p1, 8/15 μM p3)
Procedure: To isolate spores, exponentially growing C. difficile R20291 was inoculated 1:10 into 50 mL of BHIS broth and grown anaerobically at 37°C for 16 h. This culture was removed from anaerobic chamber and ethanol was added to a final concentration of 50%. The sample was rocked aerobically for 6 h. The absence of viable vegetative cells was confirmed by spreading volumes up to 1 mL on BHIS plates and incubating anaerobically for 48 h. […] Peptides were tested at final concentrations corresponding to 1X and 2X their previously observed inhibitory concentrations. All the samples were incubated in the chamber at 37°C for 16 hrs. After incubation, 50 μL aliquots of each sample were plated in triplicate on BHIS plates containing 20 μg/mL erythromycin and 0.1% taurocholic acid agar plates to induce germination. An additional 50 μL aliquot was plated on BHIS containing 20 μg/mL erythromycin to ensure that there was no contamination with vegetative cells. The plates were incubated in the chamber at 37°C for 48 h before the viable colonies were counted.

[7] = with 2 μM p1 and 4 μM p3 combined
[8] = 0.5 μg/mL vancomycin, 4 μM p1-Cu2+, or both

Compound | Concentration of antibiotic necessary to suppress 16-hour growth of C. difficile, no peptide (C. difficile R20291 [1]) | Concentration of antibiotic necessary to suppress 16-hour growth of C. difficile (C. difficile R20291 [2]; with 2 μM p1) | Concentration of antibiotic necessary to suppress 16-hour growth of C. difficile (C. difficile R20291 [2]; with 2 μM p1Cu) | Concentration of antibiotic necessary to suppress 16-hour growth of C. difficile (C. difficile R20291 [2]; [7]) | Concentration of antibiotic necessary to suppress 16-hour growth of C. difficile (C. difficile R20291 [2]; with 4 μM p3) | Concentration of antibiotic necessary to suppress 16-hour growth of C. difficile (C. difficile R20291 [2]; with 4 μM p3Cu) | Number of viable cells after co-treatment [3] | Concentration that inhibits growth and kills exponentially growing C. difficile (C. difficile) | Propidium iodide uptake by live C. difficile cells (C. difficile cells [5]) | Viable colonies from spores after peptide exposure (spore data) ([6]; 1X MIC (4 μM p1, 8 μM p3)) | Viable colonies from spores after peptide exposure (spore data) ([6]; 2X MIC (8 μM p1, 15 μM p3)) | Viability of dormant C. difficile spores [6] | further results
O=C(O)c1cn(C2CC2)c2cc(N3CCNCC3)c(F)cc2c1=O [Ciprofloxacin, ciprofloxacin] | > 128 µg/mL |  |  |  |  |  |  |  |  |  |  |  | 
CCc1c(Cl)c(O)c(Cl)c(O)c1C(=O)O[C@H]1[C@H](O)[C@H](OC)[C@H](OC/C2=C\C=C\C[C@H](O)/C(C)=C/[C@H](CC)[C@@H](O[C@@H]3OC(C)(C)[C@@H](OC(=O)C(C)C)[C@H](O)[C@@H]3O)/C(C)=C/C(C)=C/C[C@@H]([C@@H](C)O)OC2=O)O[C@@H]1C [Fidaxomicin, fidaxomicin] | 0.256 µg/mL | 0.0500 µg/mL | 0.0125 µg/mL | 0.00625 µg/mL | 0.050 µg/mL | >0.100 µg/mL | further reduced the number of viable cells |  |  |  |  |  | Fold improvement of effective antibiotic concentration (C. difficile R20291 [2]; with 2 μM p1-Cu2+ vs no peptide): 20 fold; Concentration of antibiotic necessary to suppress 16-hour growth of C. difficile (C. difficile R20291 [2]; with 2 μM p1, listed as fidaxomicin): 0.05 µg/mL; Fold improvement of effective antibiotic concentration (C. difficile R20291 [2]; with 2 μM p1 and 4 μM p3 combined vs no peptide): 40 fold; Fold improvement of effective antibiotic concentration (C. difficile R20291 [2]; with 2 μM p1 vs no peptide): 5 fold; Concentration of antibiotic necessary to suppress 16-hour growth of C. difficile (C. difficile R20291 [2]; with 4 μM p3Cu, listed as fidaxomicin): > 0.1 µg/mL
CN[C@H](CC(C)C)C(=O)N[C@H]1C(=O)N[C@@H](CC(N)=O)C(=O)N[C@H]2C(=O)N[C@H]3C(=O)N[C@H](C(=O)N[C@H](C(=O)O)c4cc(O)cc(O)c4-c4cc3ccc4O)[C@H](O)c3ccc(c(Cl)c3)Oc3cc2cc(c3O[C@@H]2O[C@H](CO)[C@@H](O)[C@H](O)[C@H]2O[C@H]2C[C@](C)(N)[C@H](O)[C@H](C)O2)Oc2ccc(cc2Cl)[C@H]1O [Vancomycin, vancomycin] | 4.000 µg/mL | 2.000 µg/mL | 0.0625 µg/mL | 0.125 µg/mL | 0.500 µg/mL | 0.250 µg/mL | further reduced the number of viable cells |  |  |  |  |  | Number of cells with cytoplasm / membrane leakage (C. difficile cells [4]; 0.5 μg/mL vancomycin (22 cells observed) or 4 μM p1-Cu2+ (14 cells observed)): 8; Number of lysed cells (severe to complete cell lysis) (C. difficile cells [4]; 0.5 μg/mL vancomycin (of 22 cells), 4 μM p1-Cu2+ (of 14), both (of 19)): 0; Proportion of lysed cells ("percentage") (C. difficile cells [4]; [8]): 0; Wilson estimate of proportion of lysed cells (C. difficile cells [4]; [8]): 0.07692; Concentration of antibiotic necessary to suppress 16-hour growth of C. difficile (C. difficile R20291 [2]; with 2 μM p1, listed as vancomycin): 2 µg/mL; Concentration of antibiotic necessary to suppress 16-hour growth of C. difficile (C. difficile R20291 [2]; with 4 μM p3, listed as vancomycin): 0.5 µg/mL; Concentration of antibiotic necessary to suppress 16-hour growth of C. difficile (C. difficile R20291 [2]; with 4 μM p3Cu, listed as vancomycin): 0.25 µg/mL; Concentration of antibiotic necessary to suppress 16-hour growth of C. difficile, no peptide (C. difficile R20291 [1]; listed as vancomycin): 4 µg/mL
Piscidin 1 [p1] |  |  |  |  |  |  |  | 4 µM | did not visibly increase PI uptake | 10100 and 12400 and 9560 and 8440 and 7400 and 9040 | 9320 and 11000 and 9200 and 8240 and 10000 and 9120 | do not affect the viability | 
Piscidin 3 [p3] |  |  |  |  |  |  |  | 8 µM | did not visibly increase PI uptake | 8760 and 8840 and 10100 and 7960 and 8080 and 8480 | 8120 and 7200 and 9000 and 8280 and 10200 and 11400 | do not affect the viability | 
Cc1ncc([N+](=O)[O-])n1CCO [Metronidazole, metronidazole] | 2.000 µg/mL | 0.500 µg/mL | 1.0000 µg/mL |  | 0.0625 µg/mL | 1.000 µg/mL | further reduced the number of viable cells |  |  |  |  |  | Concentration of antibiotic necessary to suppress 16-hour growth of C. difficile (C. difficile R20291 [2]; with 2 μM p1, listed as metronidazole): 0.5 µg/mL; Concentration of antibiotic necessary to suppress 16-hour growth of C. difficile (C. difficile R20291 [2]; with 2 μM p1Cu, listed as metronidazole): 1 µg/mL; Concentration of antibiotic necessary to suppress 16-hour growth of C. difficile (C. difficile R20291 [2]; with 4 μM p3Cu, listed as metronidazole): 1 µg/mL; Concentration of antibiotic necessary to suppress 16-hour growth of C. difficile, no peptide (C. difficile R20291 [1]; listed as metronidazole): 2 µg/mL
